Measurements reported in patent publication EP0196005A1, “Pyridazinones, their preparation and pharmaceutical compositions containing them” (Dr. Karl Thomae GmbH, priority 1985, dated 1986).
pEC50: −log10 of the molar value.

What was measured:
narkotisierten Katze = test: Blood pressure lowering and positive inotropic effect in the anaesthetised cat; assay type: in vivo; conditions: 0,1 mg/kg i.v., mean of 3 cats; for Wirkungsdauer (Halbwerts-zeit): anaesthetised cats; for Blutdruck änderung in mmHg: second value of the printed pair (presumably diastolic), pentobarbital-anaesthetised cats
Method: 2. Bestimmung der blutdrucksenkenden und positiv inotropen Wirkung an der narkotisierten Katze:
Die Untersuchungen wurden an Katzen durchgeführt, die mit Pentobarbital-Natrium (40 mg/kg i.p.) narkotisiert waren. Die Tiere atmeten spontan. Der arterielle Blutdruck wurde in der Aorta abdominalis mit einem Statham-Druckwandler (P 23 Dc) gemessen. Für die Erfassung der positiv inotropen Wirkung wurde mit einem Kathetertipmanometer (Milliar PC-350 A) der Druck in der linken Herzkammer gemessen. Daraus wurde der Kontraktilitätsparameter dp/dtmax mittels eines Analogdifferenzierers gewonnen. Die zu untersuchende Substanz wurden in eine Vena femoralis injiziert Als Lösungsmittel diente Polydiol 200. Die Substanz wurde an 3 Katzen geprüft, Dosis 0,1 i.v..

Thrombozytenaggregation = test: Platelet aggregation according to Born and Cross (collagen-induced, photometric); assay type: cell-based, gesunder Versuchspersonen; conditions: collagen-induced aggregation in platelet-rich plasma of healthy subjects
Method: 1. Bestimmung der Thrombozytenaggregation nach Bom und Cross (J. Physiol. 170, 397 (1964)):
Die Thrombozytenaggregation wurde in plättchenreichem Plasma gesunder Versuchspersonen gemessen. Hierbei wurde der Verlauf der Abnahme der optischen Dichte nach Zugabe von handelsüblichem Collagen der Firma Sigma, St. Louis/USA, welches 1 mg Collagen-Fibrillen pro ml enthält, photometrisch gemessen und registriert. Aus dem Neigungswinkel der Dichtekurve wurde auf die Aggregationsgeschwindigkeit (Vmax) geschlossen. Der Punkt der Kurve, bei dem die größte Lichtdurchlässigkeit vorlag, diente zur Berechnung der "optical density" (O.D.). Zur maximalen Aggregationsauslösung werden ca. 0,01 ml der Collagenlösung zu 1 ml plättchenreichem Plasma gegeben.

## CC1CC(=O)NN=C1c1ccc2[nH]c(N3CCSCC3)nc2c1 (stereo not shown) [E, 5-Methyl-6-[2-(4-thiomorpholino)-benzimidazol-5-yl]-4,5-dihydro-3(2H)-pyridazinon]
Narkotisierten Katze
  Wirkungsdauer (Halbwerts-zeit): 10 Minuten
  Blutdruck änderung in mmHg: -12 mmHg

## CC1CC(=O)NN=C1c1ccc2oc(-n3ccnc3)nc2c1 (stereo not shown) [A, 5-Methyl-6-[2-(1-imidazolyl)-benzoxazol-5-yl]-4,5-dihydro-3(2H)-pyridazinon]
Thrombozytenaggregation
  pEC50: 7.51
Narkotisierten Katze
  Wirkungsdauer (Halbwerts-zeit): 25 Minuten
  Blutdruck änderung in mmHg: -45 mmHg

## CC1CC(=O)NN=C1c1ccc2nc(-n3ccnc3)[nH]c2c1 (stereo not shown) [F, 5-Methyl-6-[2-(1-imidazolyl)-benzimidazol-5-yl]-4,5-dihydro-3(2H)-pyridazinon]
Narkotisierten Katze
  Wirkungsdauer (Halbwerts-zeit): 8 Minuten
  Blutdruck änderung in mmHg: -20 mmHg

## CC1CC(=O)NN=C1c1ccc2nc(N3CCNCC3)oc2c1 (stereo not shown) [B, 5-Methyl-6-[2-(1-piperazinyl)-benzoxazol-6-yl]-4,5-dihydro-3(2H)-pyridazinon]
Narkotisierten Katze
  Wirkungsdauer (Halbwerts-zeit): 12 Minuten
  Blutdruck änderung in mmHg: -43 mmHg

## CC1CC(=O)NN=C1c1ccc2[nH]c(N3CCCC3)nc2c1 (stereo not shown) [D]
Narkotisierten Katze
  Wirkungsdauer (Halbwerts-zeit): 13 Minuten
  Blutdruck änderung in mmHg: -17 mmHg

## CCOC(=O)N1CCN(c2nc3ccc(C4=NNC(=O)CC4C)cc3o2)CC1 (stereo not shown) [C, 5-Methyl-6-[2-(4-carbäthoxy-1-piperazinyl)-benzoxazol-6-yl]-4,5-dihydro-3(2H)-pyridazinon]
Narkotisierten Katze
  Wirkungsdauer (Halbwerts-zeit): 12 Minuten
  Blutdruck änderung in mmHg: -50 mmHg
